Measured values from US20100210697A1, “PHARMACEUTICAL COMPOSITION FOR TREATMENT OF CATARACT” (R-TECH UENO, LTD., priority 2007, published 2010).

How the values were obtained:
[1] = test system: rats given powder feed with 30% of galactose; assay: Cataract onset in rats fed 30% galactose feed, repeated oral administration; assay type: in vivo, Rats (Crj: Wistar)
Description: Rats (Crj: Wistar, male, 3-week-old) were purchased and, from the next day (Day 0), a mixture of a powder feed (CRF-1, Oriental Yeast Co., ltd.) and 30% of galactose (special grade, Wako Pure Chemical Industries, Ltd., Lot# 075-00035) was freely given. From Day 0, test substance 1 was repetitively administered orally.
dissolution liquid: 0.5% methylcellulose solution test substance 1: N-{4-[2-(4-hydrazinocarbonylmethylphenyl)ethyl]-1,3-thiazol-2-yl}acetamide (compound described in Production Example)

[2] = test system: STZ induced diabetic rat; assay: Cataract onset in STZ induced diabetic rats, repeated instillation into both eyes; assay type: in vivo, Rats (Crj: Wistar); conditions: for number of onset eyes / onset of cataract (conclusion in words): Day 46; for number of onset eyes / onset rate (Day 46): instilled 10 μL per eye, 3 times a day, test substance 1 0.01 wt %, test substance 2 2 wt %; for number of onset eyes: onset eyes/total eyes; for onset of cataract (conclusion in words): STZ induced diabetic rats, instillation; for onset rate (Day 46): saline pathology group 100%
Experimental: Rats (Crj: Wistar, male, 5-week-old) were purchased, grouped after acclimation for 6 days, and fasted for 20 hr.
After the fasting, Streptosotocin (hereinafter STZ, 50 mg/kg (2 mL/kg)) was administered to the tail vein.
After 24 hr from the STZ administration, the blood glucose level was measured, and the rats with blood glucose level of not less than 250 mg/dL were considered as STZ induced diabetic rat (measurement tool: ACCU-CHEK Aviva, Roche Diagnostics K.K.) (group 2-group 4).
From the next day of the blood glucose level measurement, saline, test substance 1 and test substance 2 were repetitively instilled to groups 2-4 into both eyes (10 μL for each eye) 3 times a day (9:00, 13:00, 17:00). The cataract suppression rate of the test substance at the time point when the onset of the pathology model group 2 reached 100% (Day 46) was determined. Saline was repetitively instilled in the same manner to the group free of streptosotocin administration (group 1).
In addition, the day when the nuclear part of the crystalline lens became obviously opaque was taken as the cataract onset day.
cataract onset rate: (number of cataract onset eyes/total number of eyes ×100)

Structure (SMILES)	number of onset eyes (Day 20) ([1]; Day 20, oral, 0.5 wt %, 2 mL/kg once per day, vehicle group 8/12 eyes)	onset of cataract (conclusion in words) ([1]; galactose-fed rats, oral administration, 20 days)	number of onset eyes [2]	onset of cataract (conclusion in words) [2]	onset rate (Day 46) [2]
CC(=O)Nc1nc(CCc2ccc(CC(=O)NN)cc2)cs1 [test substance 1, N-{4-[2-(4-hydrazinocarbonylmethylphenyl)ethyl]-1,3-thiazol-2-yl}acetamide]	3/12 eyes	suppresses the onset of cataract	2/8	suppress the onset of cataract	25%
CC(=O)Nc1nc(CCc2ccc(CCNC(=N)N)cc2)cs1 [test substance 2, N-(4-{2-[4-(2-{[amino(imino)methyl]amino}ethyl)phenyl]ethyl}-1,3-thiazol-2-yl)acetamide]			2/10	suppress the onset of cataract	20%
